Assay results: patent US11485742B2, “2-azaspiro[3.4]octane derivatives as M4 agonists” (NOVARTIS AG, priority 2019, dated 2022)

Tests used:
[1] = target: T1, human cloned CHRM5 receptor (Homo sapiens, UniProt P08912); assay: CHRM5 Ca++ Flux Assay (M5_CHO cells, agonist mode); type: cell-based; conditions: for M5 FDSS PA %: Percent Activity (PA) measured to EC100 of Carbachol; for EC50: agonist mode, geometric mean if tested more than once, read-out: M5 FDSS EC50
T1 construct: expressed in transfected cells; host or cells: CHO (M5_CHO)
T1 sequence (P08912 1-532): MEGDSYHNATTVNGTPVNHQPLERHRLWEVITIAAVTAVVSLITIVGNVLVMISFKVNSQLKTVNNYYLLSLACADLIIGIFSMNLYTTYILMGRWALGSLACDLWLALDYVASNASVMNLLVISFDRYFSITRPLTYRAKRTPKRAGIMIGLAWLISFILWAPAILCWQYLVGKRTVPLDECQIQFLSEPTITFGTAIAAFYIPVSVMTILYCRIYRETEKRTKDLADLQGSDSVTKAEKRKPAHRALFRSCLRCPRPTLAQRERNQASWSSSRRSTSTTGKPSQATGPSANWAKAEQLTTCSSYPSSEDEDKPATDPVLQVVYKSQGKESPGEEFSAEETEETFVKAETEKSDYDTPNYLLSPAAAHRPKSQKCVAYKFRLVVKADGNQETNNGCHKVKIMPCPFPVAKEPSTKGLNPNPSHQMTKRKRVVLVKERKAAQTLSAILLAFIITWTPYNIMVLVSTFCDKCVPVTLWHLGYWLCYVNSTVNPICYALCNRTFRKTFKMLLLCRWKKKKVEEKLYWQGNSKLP
Experimental: (§1) The above examples were characterized by measuring the intracellular mobilization of Ca^++ ions caused by signaling events mediated by the receptor. The Intra-cellular Calcium flux levels were captured by the highly sensitive Ca^++ indicator, Calcium Assay Kit (BD Biosciences; Catalog Number 640178. The fluorescent activity from all receptors were monitored by the fluorescent imager, FDSS 7000EX (Hamamatsu) over a span of 3 minutes. The change in Calcium flux was readily captured upon activation with the muscarinic orthosteric agonist, Carbachol.
(§2) CHO-K1 cells stably expressing the human cloned CHRM3 receptor (M3_CHO cells) were grown and maintained in a monolayer culture with F12/HAM (Life Technologies) supplemented with 10% Fetal Bovine Serum, IX Pen-Strep, and 0.4 mg/mL Geneticin in a humidified atmosphere (5% CO2) at 37° C. The cultures were grown to 80-90% confluency in T150 flasks (Corning) and washed with 1×DPBS and lifted with 0.05% Trypsin (Life Technologies). The cells were then spun (1K rpm, 3 minutes) and frozen using Recovery Cell Culture Freezing Media (Gibco Technologies). Cells were stored in liquid nitrogen and thawed a day before the assay. A similar procedure was used for cells stably expressing the human cloned CHRM5 receptor (M5_CHO).
Prior to the day of the assay, stable M3_CHO or M5_CHO cells were thawed and plated on Greiner 384 well black TC treated plates at 12K cells/well in F12/DMEM supplemented with 10% FBS (Hyclone) and kept overnight in a humidified atmosphere (5% CO2) at 37° C. The next day, cells were loaded with Ca^++ dye (BD Biosciences) using Loading Buffer (HBSS +Ca/+Mg, 20 mM HEPES, 2.5 mM Probenecid) and placed back in cell incubator for a minimum of 1 hour. After incubation, the dye was replaced with Assay Buffer (HBSS −Ca/−Mg, 20 mM HEPES, 2.5 mM Probenecid) and kept at room temperature in the dark before running on cell imager. The FDSS 7000EX (Hamamatsu) was used to acquire Ca^+− traces from cells treated with 11 point dose response of compounds in triplicate in order to generate dose response curves in agonist mode. All compounds were serially diluted in DMSO then prepared in Assay Buffer for Ca^++ flux studies. The dose response curves were generated from the average of triplicate wells obtained from each data point and used a non-linear regression of four parameter dose response algorithm. The Percent Activity (PA) was measured to EC100 of Carbachol.
(§3) If an Example was tested more than once in an assay, then the values below represent the geometric mean of the results from each independent experiment.

[2] = target: T2, human cloned CHRM2 receptor (Homo sapiens, UniProt P08172); assay: CHRM2 Ca++ Flux Assay (M2_CHO cells, agonist mode); type: cell-based; conditions: M2 CHO cells; for EC50: agonist mode, geometric mean if tested more than once, read-out: M2 FDSS EC50; for M2 FDSS PA %: Percent Activity (PA) measured to EC100 of Carbachol
T2 construct: expressed in transfected cells; host or cells: CHO-K1 (M2_CHO)
T2 sequence (P08172 1-466): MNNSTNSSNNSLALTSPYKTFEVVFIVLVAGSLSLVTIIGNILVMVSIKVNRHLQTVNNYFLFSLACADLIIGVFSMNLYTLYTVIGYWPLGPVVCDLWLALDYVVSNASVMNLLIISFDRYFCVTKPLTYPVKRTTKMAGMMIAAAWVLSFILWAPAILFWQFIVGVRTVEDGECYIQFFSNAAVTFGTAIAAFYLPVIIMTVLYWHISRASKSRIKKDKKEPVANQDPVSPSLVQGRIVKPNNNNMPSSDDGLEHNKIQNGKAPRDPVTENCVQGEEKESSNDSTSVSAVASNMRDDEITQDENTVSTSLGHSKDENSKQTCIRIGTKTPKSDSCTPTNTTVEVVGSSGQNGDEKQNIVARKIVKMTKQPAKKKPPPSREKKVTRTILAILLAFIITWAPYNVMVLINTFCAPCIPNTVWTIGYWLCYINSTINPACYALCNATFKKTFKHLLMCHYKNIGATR
Experimental: as §1
as §2, with “CHRM2” for “CHRM3”, “(M2_CHO” for “(M3_CHO”, “1×Pen-Strep,” for “IX Pen-Strep,”, “assay.” for “assay. A similar procedure was used for cells stably expressing the human cloned CHRM5 receptor (M5_CHO).”
Prior to the day of the assay, stable M2 CHO cells were thawed and plated on Greiner 384 well TC treated plate at a density of 12K cells/well and kept overnight in a humidified atmosphere (5% CO2) at 37° C. The following day, the cells were loaded with Ca^++ dye (BD Biosciences) using Loading Buffer (HBSS +Ca/+Mg, 20 mM HEPES, 2.5 mM Probenecid) and placed back in cell incubator for a minimum of 1 hour and maximum of 2 hours. After incubation, the dye was replaced with Assay Buffer (HBSS −Ca/−Mg, 20 mM HEPES, 2.5 mM Probenecid) supplemented with 20 μM ATP (Sigma Aldrich) and kept at room temperature for 60 minutes prior before running on cell imager. The FDSS 7000EX (Hamamatsu) was used to acquire Ca^++ traces from cells in response to compound treatment and the data was used to generate dose response curves in agonist mode. All compounds were serially diluted in DMSO then prepared in Assay Buffer for Ca^−+ flux studies. The dose response curves were generated from the average of triplicate wells obtained from each data point and used a non-linear regression of four parameter dose response algorithm. The Percent Activity (PA) was measured to EC100 of Carbachol.
as §3

Row | SMILES | M5 FDSS PA % [1] | EC50 [1] | EC50 [2] | M2 FDSS PA % [2]
1 | Fc1ccc(O[C@H]2CCCOC2)c(C2CCN([C@@H]3COC4(C3)CN(c3nnco3)C4)CC2)c1 (single isomer, unassigned) [Example 2R, (S)-7-(4-(5-fluoro-2-(((S)-tetrahydro-2H-pyran-3-yl)oxy)phenyl)piperidin-1-yl)-2-(1,3,4-oxadiazol-2-yl)-5-oxa-2-azaspiro[3.4]octane or (S)-7-(4-(5-fluoro-2-(((R)-tetrahydro-2H-pyran-3-yl)oxy)phenyl)piperidin-1-yl)-2-(1,3,4-oxadiazol-2-yl)-5-oxa-2-azaspiro[3.4]octane] | 0% | > 25 µM | 0.259 µM | 42%
2 | CC(C)(O)[C@H]1C[C@H](Oc2ccc(F)cc2C2CCN([C@@H]3COC4(C3)CN(c3nnco3)C4)CC2)C1 (single isomer, unassigned) [Example 2V, 2-((1S,3r)-3-(2-(1-((S)-2-(1,3,4-oxadiazol-2-yl)-5-oxa-2-azaspiro[3.4]octan-7-yl)piperidin-4-yl)-4-fluorophenoxy)cyclobutyl)propan-2-ol or 2-((1R,3s)-3-(2-(1-((S)-2-(1,3,4-oxadiazol-2-yl)-5-oxa-2-azaspiro[3.4]octan-7-yl)piperidin-4-yl)-4-fluorophenoxy)cyclobutyl)propan-2-ol] | 0% | > 25 µM | 1.08 µM | 28%
3 | CC(C)(O)[C@H]1C[C@H](Oc2ccc(F)cc2C2CCN([C@@H]3COC4(C3)CN(c3nnco3)C4)CC2)C1 (single isomer, unassigned) [Example 2W, 2-((1S,3r)-3-(2-(1-((S)-2-(1,3,4-oxadiazol-2-yl)-5-oxa-2-azaspiro[3.4]octan-7-yl)piperidin-4-yl)-4-fluorophenoxy)cyclobutyl)propan-2-ol or 2-((1R,3s)-3-(2-(1-((S)-2-(1,3,4-oxadiazol-2-yl)-5-oxa-2-azaspiro[3.4]octan-7-yl)piperidin-4-yl)-4-fluorophenoxy)cyclobutyl)propan-2-ol] | 0% | > 25 µM | 3.08 µM | 29%
4 | C[C@H](Oc1ccc(F)cc1C1CCN([C@@H]2COC3(C2)CN(c2nnco2)C3)CC1)C1CCOCC1 (single isomer, unassigned) [Example 2Y, (S)-7-(4-(5-fluoro-2-((S)-1-(tetrahydro-2H-pyran-4-yl)ethoxy)phenyl)piperidin-1-yl)-2-(1,3,4-oxadiazol-2-yl)-5-oxa-2-azaspiro[3.4]octane or (S)-7-(4-(5-fluoro-2-((R)-1-(tetrahydro-2H-pyran-4-yl)ethoxy)phenyl)piperidin-1-yl)-2-(1,3,4-oxadiazol-2-yl)-5-oxa-2-azaspiro[3.4]octane] | 13% | 9.46 µM | 3.33 µM | 35%
5 | c1ccc([C@@H]2CCOC2)c(C2CCN([C@@H]3COC4(C3)CN(c3nnco3)C4)CC2)c1 (single isomer, unassigned) [Example 3A, (S)-2-(1,3,4-oxadiazol-2-yl)-7-(4-(2-((S)-tetrahydrofuran-3-yl)phenyl)piperidin-1-yl)-5-oxa-2-azaspiro[3.4]octane or (S)-2-(1,3,4-oxadiazol-2-yl)-7-(4-(2-((R)-tetrahydrofuran-3-yl)phenyl)piperidin-1-yl)-5-oxa-2-azaspiro[3.4]octane] | 0% | > 25 µM | 1.57 µM | 35%
6 | c1ccc([C@@H]2CCOC2)c(C2CCN([C@@H]3COC4(C3)CN(c3nnco3)C4)CC2)c1 (single isomer, unassigned) [Example 3B, (S)-2-(1,3,4-oxadiazol-2-yl)-7-(4-(2-((S)-tetrahydrofuran-3-yl)phenyl)piperidin-1-yl)-5-oxa-2-azaspiro[3.4]octane or (S)-2-(1,3,4-oxadiazol-2-yl)-7-(4-(2-((R)-tetrahydrofuran-3-yl)phenyl)piperidin-1-yl)-5-oxa-2-azaspiro[3.4]octane] | 0% | > 25 µM | 1.5 µM | 31%
7 | Fc1ccc([C@H]2CCOC2)c(C2CCN([C@@H]3COC4(C3)CN(c3nnco3)C4)CC2)c1 (single isomer, unassigned) [Example 3E, (S)-7-(4-(5-fluoro-2-((R)-tetrahydrofuran-3-yl)phenyl)piperidin-1-yl)-2-(1,3,4-oxadiazol-2-yl)-5-oxa-2-azaspiro[3.4]octane or (S)-7-(4-(5-fluoro-2-((S)-tetrahydrofuran-3-yl)phenyl)piperidin-1-yl)-2-(1,3,4-oxadiazol-2-yl)-5-oxa-2-azaspiro[3.4]octane] | 0% | > 25 µM | 0.404 µM | 60%
8 | Fc1ccc([C@H]2CCOC2)c(C2CCN([C@@H]3COC4(C3)CN(c3nnco3)C4)CC2)c1 (single isomer, unassigned) [Example 3F, (S)-7-(4-(5-fluoro-2-((R)-tetrahydrofuran-3-yl)phenyl)piperidin-1-yl)-2-(1,3,4-oxadiazol-2-yl)-5-oxa-2-azaspiro[3.4]octane or (S)-7-(4-(5-fluoro-2-((S)-tetrahydrofuran-3-yl)phenyl)piperidin-1-yl)-2-(1,3,4-oxadiazol-2-yl)-5-oxa-2-azaspiro[3.4]octane] | 0% | > 25 µM | 0.406 µM | 49%
